Results from US12391691B2, “Synthesis of key intermediate of KRAS G12C inhibitor compound” (Amgen Inc., priority 2018, dated 2025).
Values after ≈ are worked out from the molar mass of the structure shown. Values belong to the molecule of their own block, whether it stands above or below them.

What was measured:
[1] = 5-day equilibrium solubility of M/P-Dione (ternary phase diagram); conditions: 2-MeTHF/n-heptane (1.4:1, v/v), RT, 5 days; for Solid XRPD: residual solid
[2] = physchem; conditions: organic solvent or mixture, thermodynamic from solid
[3] = #3: 20.2 mg M-Dione + 119.3 mg P-Dione
[4] = #4: 89.8 mg M-Dione + 90.3 mg P-Dione
[5] = #5: 121.1 mg M-Dione + 40.7 mg P-Dione
[6] = #6: 90.2 mg M-Dione + 19.5 mg P-Dione
[7] = #7: 41.6 mg M-Dione + 39.9 mg P-Dione
[8] = #8: 39.2 mg M-Dione + 120.3 mg P-Dione
[9] = #9: 119.1 mg M-Dione + 20.5 mg P-Dione

Solid de [1, 3]: −69.2%
Supernatant [M]/[P] [1, 3]: 0.2
Supernatant de [1, 3]: −73.6%
Solid XRPD [1, 3]: A + RD
Solid de [1, 4]: 0.6%
Supernatant [M]/[P] [1, 4]: 0.9
Supernatant de [1, 4]: −3.9%
Solid de [1, 5]: 27.0%
Supernatant [M]/[P] [1, 5]: 33.4
Supernatant de [1, 5]: 94.2%
Solid XRPD [1, 5]: A + RC
Solid de [1, 6]: 35.0%
Supernatant [M]/[P] [1, 6]: 37.6
Supernatant de [1, 6]: 94.8%
Solid XRPD [1, 6]: A + RC
Solid de [1, 7]: 1.4%
Supernatant [M]/[P] [1, 7]: 1.1
Supernatant de [1, 7]: 4.4%
Solid de [1, 8]: −39.1%
Supernatant [M]/[P] [1, 8]: 0.2
Supernatant de [1, 8]: −72.8%
Solid XRPD [1, 8]: A + RD
Solid de [1, 9]: 54.9%
Supernatant [M]/[P] [1, 9]: 34.5
Supernatant de [1, 9]: 94.4%
Solid XRPD [1, 9]: A + RC
SMILES: Cc1ccnc(C(C)C)c1-n1c(=O)[nH]c(=O)c2cc(F)c(Cl)nc21 [M/P-Dione]

SMILES: O=C(O[C@H](C(=O)O)[C@H](OC(=O)c1ccccc1)C(=O)O)c1ccccc1 [DBTA, (+)-2,3-dibenzoyl-D-tartaric acid]
solubility at 5 days ([2]; 20 °C): 99.1 mg/mL (≈ 277 mM)
solubility at 5 days ([2]; 30 °C): 100 mg/mL (≈ 280 mM)
solubility at 5 days ([2]; 40 °C): 98.9 mg/mL (≈ 276 mM)
solubility at 5 days ([2]; 50 °C): 88 mg/mL (≈ 246 mM)
solubility at 5 days ([2]; 60 °C): 105 mg/mL (≈ 293 mM)
solubility at 5 days ([2]; 65 °C): 96.1 mg/mL (≈ 268 mM)
solubility at 5 days [2]: ~100 mg/mL (≈ 279 mM)
